No end group written: not given here.
Tests used:
FKBP12 = FKBP12 (Homo sapiens, UniProt P62942); conditions: read-out: dissociation constants for FKBP12; cited from earlier work
p42 MAP kinase (Erk2) = target: T1, p42 MAP kinase (Erk2) (Mus musculus, UniProt P63085); test: kinase substrate screen on BSA-NHS slides with 33P-γ-ATP, Erk2; format: biochemical; conditions: slide incubated with Erk2
T1 construct: purchased New England Biolabs (Beverly, Mass.)
Experimental: (§1) To give but one example, most signal transduction networks are composed of numerous kinases and the proteins that they phosphorylate. Protein microarrays offer an ideal system for the rapid and parallel identification of the substrates of protein kinases. A microarray of proteins can be incubated with a purified kinase in the presence of ATP, and the substrates identified by detecting their phosphorylation. In but one exemplary system, three different kinase/substrate pairs were chosen: cAMP-dependent protein kinase (PKA) and “Kemptide” (a peptide substrate for PKA) (Kemp et al. J. Biol. Chem. 252:4888-4894, 1977; incorporated herein by reference); casein kinase II (CKII) and protein phosphatase inhibitor 2 (I-2) (DePaoli-Roach J. Biol. Chem. 259:12144-12152, 1984; incorporated herein by reference); and p42 MAP kinase (Erk2) and Elk1 (Marais et al. Cell 73:381-393, 1993; incorporated herein by reference). […] Following a three-hour incubation, each slide was quenched with glycine and incubated with a different kinase in the presence of ^33P-γ-ATP (FIG. 3). […]
(§2) The slide in FIG. 3A was incubated with PKA. […] Since isotopic […] is known to be quantitative, the best substrates in a library of peptides can be readily identified. […]
(§3) For FIG. 3, the proteins were spotted on BSA-NHS slides using a GMS 417 Arrayer. […] The slides were then ready for further processing (see below). […]

[1] = test system: 5-helix (portion of the HIV protein gp41); conditions: rank among the three peptides; cited from earlier work
[2] = target: T2, cAMP-dependent protein kinase (PKA) (Mus musculus, UniProt P05132); test: kinase substrate screen on BSA-NHS slides with 33P-γ-ATP, PKA; format: biochemical; conditions: slide incubated with PKA
T2 construct: purchased New England Biolabs (Beverly, Mass.)
Experimental: as §1, §2, §3

[3] = target: T3, p50 (of the NFκB complex) (Homo sapiens, UniProt P19838); test: protein microarray: protein-protein interaction, p50 spots; format: binding; conditions: probe 0.1 μg/ml
T3 construct: p50 (of the NFκB complex) and IκBα
T3 sequence (P19838 1-433 limits assumed): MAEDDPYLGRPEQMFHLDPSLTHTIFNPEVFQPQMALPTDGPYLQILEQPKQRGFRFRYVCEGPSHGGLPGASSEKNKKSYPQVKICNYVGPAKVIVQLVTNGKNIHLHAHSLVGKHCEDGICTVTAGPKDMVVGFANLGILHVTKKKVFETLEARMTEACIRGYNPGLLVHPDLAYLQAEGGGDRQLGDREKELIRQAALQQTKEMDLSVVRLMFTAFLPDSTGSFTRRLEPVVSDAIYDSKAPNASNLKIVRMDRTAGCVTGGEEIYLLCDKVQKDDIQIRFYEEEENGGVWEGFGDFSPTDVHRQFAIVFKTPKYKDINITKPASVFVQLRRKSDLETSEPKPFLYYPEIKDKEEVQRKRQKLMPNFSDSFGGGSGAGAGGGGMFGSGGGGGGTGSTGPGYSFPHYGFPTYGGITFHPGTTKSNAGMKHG
Description: Arraying Proteins on Glass Slides.
Screening for Protein-Protein Interactions.

casein kinase II (CKII) = target: T4, casein kinase II (CKII) (Homo sapiens, UniProt P68400); test: kinase substrate screen on BSA-NHS slides with 33P-γ-ATP, CKII; format: biochemical; conditions: slide incubated with CKII
T4 construct: purchased New England Biolabs (Beverly, Mass.)
Experimental: as §1, §2, §3

T1 sequence (P63085 2-358 limits assumed): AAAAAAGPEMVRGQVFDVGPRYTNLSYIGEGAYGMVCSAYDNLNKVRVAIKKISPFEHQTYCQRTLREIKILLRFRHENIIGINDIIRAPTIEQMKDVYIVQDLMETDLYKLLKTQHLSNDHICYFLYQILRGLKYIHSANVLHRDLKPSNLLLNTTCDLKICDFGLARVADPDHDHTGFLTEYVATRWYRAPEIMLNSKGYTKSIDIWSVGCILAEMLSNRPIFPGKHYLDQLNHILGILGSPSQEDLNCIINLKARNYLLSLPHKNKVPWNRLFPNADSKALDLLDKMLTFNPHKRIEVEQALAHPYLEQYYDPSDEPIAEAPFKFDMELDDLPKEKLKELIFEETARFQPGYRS
T4 sequence (P68400 whole entry): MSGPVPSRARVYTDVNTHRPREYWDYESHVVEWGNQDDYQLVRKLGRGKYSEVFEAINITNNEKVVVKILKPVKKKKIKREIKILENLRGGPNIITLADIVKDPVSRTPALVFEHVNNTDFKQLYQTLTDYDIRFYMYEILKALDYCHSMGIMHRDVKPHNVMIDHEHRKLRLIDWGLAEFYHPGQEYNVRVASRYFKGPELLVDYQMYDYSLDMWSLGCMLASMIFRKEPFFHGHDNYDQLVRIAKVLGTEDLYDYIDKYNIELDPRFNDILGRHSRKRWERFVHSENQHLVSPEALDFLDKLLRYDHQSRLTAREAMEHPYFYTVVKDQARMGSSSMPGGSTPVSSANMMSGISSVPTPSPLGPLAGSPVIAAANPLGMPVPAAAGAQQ
T4 sequence (P67870 whole entry partner): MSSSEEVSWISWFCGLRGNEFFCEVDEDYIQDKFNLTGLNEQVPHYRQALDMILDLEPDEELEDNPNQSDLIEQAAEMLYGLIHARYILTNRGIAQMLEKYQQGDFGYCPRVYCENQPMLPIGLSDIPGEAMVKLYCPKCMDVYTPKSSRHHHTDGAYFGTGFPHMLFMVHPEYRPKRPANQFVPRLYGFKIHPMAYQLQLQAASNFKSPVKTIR
FKBP12, sequence (P62942 whole entry): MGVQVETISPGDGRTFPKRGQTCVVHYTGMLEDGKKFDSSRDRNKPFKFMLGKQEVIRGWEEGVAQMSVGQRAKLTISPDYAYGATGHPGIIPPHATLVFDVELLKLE

COc1ccc(CC[C@@H](OC(=O)[C@@H]2CCCCN2C(=O)Cc2ccccc2)c2cccc(OCC(=O)O)c2)cc1OC [Compound 3c]
Kd (FKBP12): 2600 nM

Elk1: protein substrate of p42 MAP kinase (Erk2)
phosphorylation of spotted substrate (p42 MAP kinase (Erk2)): phosphorylated

GGHTTWMEADREINNYTSLIHSLIEESQNQQEKNEQELL [JN-DCC2, peptide ligand for 5-helix]
relative affinity for 5-helix [1]: lowest affinity

GGHTTWMELDREINNYTSLIHSLIEESQNQQEKNEQELL [JN-DCC1, peptide ligand for 5-helix]
relative affinity for 5-helix [1]: second highest affinity

GGHTTWMEWDREINNYTSLIHSLIEESQNQQEKNEQELLGGHHHHHH [Compound C37-H6, peptide ligand for 5-helix]
relative affinity for 5-helix [1]: highest affinity

LRRASLG [Kemptide]
phosphorylation of spotted substrate [2]: phosphorylated

B1: Cy3-conjugated IκBα: IκBα labeled with Cy3 (protein, UniProt P25963 1-317, looked up)
NF-kappa-B inhibitor alpha: MFQAAERPQEWAMEGPRDGLKKERLLDDRHDSGLDSMKDEEYEQMVKELQEIRLEPQEVPRGSEPWKQQLTEDGDSFLHLAIIHEEKALTMEVIRQVKGDLAFLNFQNNLQQTPLHLAVITNQPEIAEALLGAGCDPELRDFRGNTPLHLACEQGCLASVGVLTQSCTTPHLHSILKATNYNGHTCLHLASIHGYLGIVELLVSLGADVNAQEPCNGRTALHLAVDLQNPDLVSLLLKCGADVNRVTYQGYSPYQLTWGRPSTRIQQQLGQLTLENLQMLPESEDEESYDTESEFTEFTEDELPYDDCVFGGQRLTL
modifications: Cy3 label
localization of Cy3 fluorescence on array of protein G, p50 and GST-FRB [3]: localized to the p50-containing spots

B2: I-2: protein phosphatase inhibitor 2, substrate of casein kinase II (protein, UniProt P41236 2-205, looked up)
Protein phosphatase inhibitor …: AASTASHRPIKGILKNKTSTTSSMVASAEQPRGNVDEELSKKSQKWDEMNILATYHPADKDYGLMKIDEPSTPYHSMMGDDEDACSDTEATEAMAPDILARKLAAAEGLEPKYRIQEQESSGEEDSDLSPEEREKKRQFEMKRKLHYNEGLNIKLARQLISKDLHDDDEDEEMLETADGESMNTEESNQGSTPSDQQQNKLRSS
phosphorylation of spotted substrate (casein kinase II (CKII)): phosphorylated

Source: patent US20040038428A1, “Protein microarrays” (priority 2000, published 2004)
